Earlier results as cited in US20070293674A1, “Novel Saperconazole Crystalline Forms and Related Processes, Pharmaceutical Compositions and Methods” (TRANSFORM PHARMACEUTICALS, INC., priority 2004, published 2007).

Tests used:
[1] = piperazine of itraconazole
[2] = free base

SMILES: CCC(C)n1ncn(-c2ccc(N3CCN(c4ccc(OC[C@H]5CO[C@](Cn6cncn6)(c6ccc(Cl)cc6Cl)O5)cc4)CC3)cc2)c1=O (mixture of isomers) [itraconazole, 4-[4-[4-[4-[[2-(2,4-dichlorophenyl)-2-(1H-1,2,4-triazol-1-ylmethyl)-1,3-dioxolan-4-yl]methoxy]phenyl]-1-piperazinyl]phenyl]-2,4-dihydro-2-(1-methylpropyl)-3H-1,2,4-triazol-3-one]
- pKa value for the piperazine [1]: 3.7
- solubility in water [2]: only very sparingly soluble in water
